Literature values, collected in publication PMC7504092, “Synthesis and Antiplasmodial Evaluation of 4-Carboxamido- and 4-Alkoxy-2-Trichloromethyl Quinazolines” (Molecules, 2020).

Test system: W2 P. falciparum
Set-up: method as in PMID 21741131
Settings: W2 strain; cited from earlier work

Oc1nc(C(Cl)(Cl)Cl)nc2ccccc12 [2-(trichloromethyl)quinazolin-4-ol]
activity against W2 P. falciparum (in words): not active
